Data reported in US6737383B1, “Herbicidal oxadiazolidines” (priority 1999, dated 2004).

How the values were obtained:
[1] = test system: surinam grass; experiment: Test B pre/postemergence surinam grass; assay type: in vivo, Brachiaria decumbens
Method in brief: (§1)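 Herbicidal effect was estimated by eye on a ten-point control scale after plants spent twelve to sixteen days in a greenhouse following soil or foliar treatment. Foliar sprays targeted plants at one to four leaves; all doses were formulated in a non-phytotoxic solvent with surfactant.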

[2] = test system: cocklebur; experiment: Test B pre/postemergence cocklebur; assay type: in vivo, Xanthium strumarium
Method in brief: as §1

[3] = test system: corn; experiment: Test B pre/postemergence corn; assay type: in vivo, Zea mays
Method in brief: as §1

[4] = test system: crabgrass; experiment: Test B pre/postemergence crabgrass; assay type: in vivo, Digitaria sanguinalis
Method in brief: as §1

[5] = test system: giant foxtail; experiment: Test B pre/postemergence giant foxtail; assay type: in vivo, Setaria faberii
Method in brief: as §1

[6] = test system: morningglory; experiment: Test B pre/postemergence morningglory; assay type: in vivo, Ipomoea hederacea
Method in brief: as §1

[7] = test system: pigweed; experiment: Test B pre/postemergence pigweed; assay type: in vivo, Amaranthus retroflexus
Method in brief: as §1

[8] = test system: rape; experiment: Test B pre/postemergence rape; assay type: in vivo, Brassica napus
Method in brief: as §1

[9] = test system: sugar beet; experiment: Test B pre/postemergence sugar beet; assay type: in vivo, Beta vulgaris
Method in brief: as §1

[10] = test system: wheat; experiment: Test B pre/postemergence wheat; assay type: in vivo, Triticum aestivum
Method in brief: as §1

[11] = test system: wild oat; experiment: Test B pre/postemergence wild oat; assay type: in vivo, Avena fatua
Method in brief: as §1

[12] = test system: purple nutsedge; experiment: Test B pre/postemergence purple nutsedge; assay type: in vivo, Cyperus rotundus
Method in brief: as §1

[13] = test system: rice; experiment: Test B flood test rice; assay type: in vivo, Oryza sativa
Method in brief: (§2)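 Read-out is a visual response score from 0 (no effect) to 10 (complete control), assigned by comparison with untreated controls. Treatment was applied at the 2-leaf stage, and plants stayed in the greenhouse for twelve to sixteen days before scoring.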

[14] = test system: smallflower flatsedge; experiment: Test B flood test smallflower flatsedge; assay type: in vivo, Cyperus difformis
Method in brief: as §2

[15] = test system: duck salad; experiment: Test B flood test duck salad; assay type: in vivo, Heteranthera limosa
Method in brief: as §2

[16] = test system: bamyardgrass; experiment: Test B flood test barnyardgrass; assay type: in vivo, Echinochloa crus-galli
Method in brief: as §2

[17] = Postemergence, Rate 125 g/ha, scale of 0 to 10 where 0 is no effect and 10 is complete control
[18] = Postemergence, Rate 250 g/ha, scale of 0 to 10, 0 is no effect, 10 is complete control
[19] = Postemergence, Rate 500 g/ha, scale of 0 to 10 where 0 is no effect and 10 is complete control
[20] = Postemergence, Rate 1000 g/ha, scale 0 to 10 (0 no effect, 10 complete control)
[21] = Preemergence, Rate 125 g/ha, scale of 0 to 10 where 0 is no effect and 10 is complete control
[22] = Preemergence, Rate 250 g/ha, scale 0 to 10 (0 no effect, 10 complete control)
[23] = Preemergence, Rate 500 g/ha, scale of 0 to 10 where 0 is no effect and 10 is complete control
[24] = Rate 1000 g/ha, Preemergence, scale 0 to 10 (0 no effect, 10 complete control)
[25] = Pre-emergence, Rate 1000 g/ha, scale 0 to 10 (0 no effect, 10 complete control)
[26] = Rate 125 g/ha, under heading Pre-emergence, flood test species, visual evaluation after twelve to sixteen days
[27] = Rate 250 g/ha, Pre-emergence (flood test species), scale 0 to 10, 0 is no effect, 10 is complete control
[28] = Rate 500 g/ha, Pre-emergence section of Table B, 0 to 10 scale (0 no effect, 10 complete control)

For `COC(=O)C(C)n1c(=O)on(C(=O)N(c2ccc(F)cc2)C(C)C)c1=O` (stereo not shown) [Compound 616], the “Plant response rating, B. signalgrass” value [1, 17] was 0, the “B. signalgrass plant response rating” value [1, 18] was 1 and the “Plant response rating, B. signalgrass” value [1, 19] was 4. For the same compound, the “B. signalgrass plant response rating” value [1, 20] was 5, the “B. signalgrass plant response rating” value [1, 21] was 0 and the “Plant response rating, B. signalgrass” value [1, 22] was 0. For the same compound, the “B. signalgrass plant response rating” value [1, 23] was 1, the “Plant response rating, B. signalgrass” value [1, 24] was 6 and the “Plant response rating, Cocklebur” value [2, 17] was 0. For the same compound, the “Cocklebur plant response rating” value [2, 18] was 0, the “Plant response rating, Cocklebur” value [2, 19] was 0 and the “Cocklebur plant response rating” value [2, 20] was 3. The “Cocklebur plant response rating” value [2, 21] was 0, the “Plant response rating, Cocklebur” value [2, 22] was 0 and the “Plant response rating, Cocklebur” value [2, 23] was 0. For the same compound, the “Plant response rating, Cocklebur” value [2, 24] was 0, the “Plant response rating, Corn” value [3, 17] was 0 and the “Corn plant response rating” value [3, 18] was 0. For the same compound, the “Plant response rating, Corn” value [3, 19] was 0, the “Corn plant response rating” value [3, 20] was 0 and the “Corn plant response rating” value [3, 21] was 0. For the same compound, the “Plant response rating, Corn” value [3, 22] was 0, the “Plant response rating, Corn” value [3, 23] was 0 and the “Plant response rating, Corn” value [3, 24] was 2. The “Plant response rating, Crabgrass” value [4, 17] was 2, the “Crabgrass plant response rating” value [4, 18] was 4 and the “Plant response rating, Crabgrass” value [4, 19] was 7. For the same compound, the “Crabgrass plant response rating” value [4, 20] was 8, the “Crabgrass plant response rating” value [4, 21] was 0 and the “Plant response rating, Crabgrass” value [4, 22] was 0. The “Plant response rating, Crabgrass” value [4, 23] was 1, the “Plant response rating, Crabgrass” value [4, 24] was 6 and the “Plant response rating, Giant foxtail” value [5, 17] was 3. The “Giant foxtail plant response rating” value [5, 18] was 3, the “Plant response rating, Giant foxtail” value [5, 19] was 6 and the “Giant foxtail plant response rating” value [5, 20] was 7. For the same compound, the “Giant foxtail plant response rating” value [5, 21] was 1, the “Plant response rating, Giant foxtail” value [5, 22] was 7 and the “Plant response rating, Giant foxtail” value [5, 23] was 5. The “Plant response rating, Giant foxtail” value [5, 24] was 9, the “Plant response rating, Morningglory” value [6, 17] was 0 and the “Morningglory plant response rating” value [6, 18] was 4. For the same compound, the “Plant response rating, Morningglory” value [6, 19] was 10, the “Morningglory plant response rating” value [6, 20] was 10 and the “Morningglory plant response rating” value [6, 21] was 0. For the same compound, the “Plant response rating, Morningglory” value [6, 22] was 0, the “Plant response rating, Morningglory” value [6, 23] was 0 and the “Plant response rating, Morningglory” value [6, 24] was 0. For the same compound, the “Plant response rating, Redroot pigweed” value [7, 17] was 0, the “Redroot pigweed plant response rating” value [7, 18] was 0 and the “Plant response rating, Redroot pigweed” value [7, 19] was 1. The “Redroot pigweed plant response rating” value [7, 20] was 3, the “Redroot pigweed plant response rating” value [7, 21] was 1 and the “Plant response rating, Redroot pigweed” value [7, 22] was 8. The “Plant response rating, Redroot pigweed” value [7, 23] was 10, the “Plant response rating, Redroot pigweed” value [7, 24] was 10 and the “Plant response rating, Rape” value [8, 17] was 0. For the same compound, the “Rape plant response rating” value [8, 18] was 0, the “Plant response rating, Rape” value [8, 19] was 0 and the “Rape plant response rating” value [8, 20] was 3. For the same compound, the “Rape plant response rating” value [8, 21] was 0, the “Plant response rating, Rape” value [8, 22] was 0 and the “Plant response rating, Rape” value [8, 23] was 3. The “Plant response rating, Rape” value [8, 24] was 6, the “Plant response rating, Sugarbeets” value [9, 17] was 0 and the “Sugarbeets plant response rating” value [9, 18] was 0. The “Plant response rating, Sugarbeets” value [9, 19] was 2, the “Sugarbeets plant response rating” value [9, 20] was 2 and the “Sugarbeets plant response rating” value [9, 21] was 0. For the same compound, the “Plant response rating, Sugarbeets” value [9, 22] was 0, the “Plant response rating, Sugarbeets” value [9, 23] was 1 and the “Plant response rating, Sugarbeets” value [9, 24] was 7. For the same compound, the “Plant response rating, Wheat” value [10, 17] was 0, the “Wheat plant response rating” value [10, 18] was 0 and the “Plant response rating, Wheat” value [10, 19] was 0. The “Wheat plant response rating” value [10, 20] was 0, the “Wheat plant response rating” value [10, 21] was 0 and the “Plant response rating, Wheat” value [10, 22] was 0. For the same compound, the “Plant response rating, Wheat” value [10, 23] was 0, the “Plant response rating, Wheat” value [10, 24] was 0 and the “Plant response rating, Wild oats” value [11, 17] was 0. The “Wild oats plant response rating” value [11, 18] was 0, the “Plant response rating, Wild oats” value [11, 19] was 0 and the “Wild oats plant response rating” value [11, 21] was 0. For the same compound, the “Plant response rating, Wild oats” value [11, 22] was 0, the “Plant response rating, Wild oats” value [11, 23] was 2 and the “Plant response rating, Wild oats” value [11, 24] was 10. The “Plant response rating, Nutsedge” value [12, 17] was 0, the “Nutsedge plant response rating” value [12, 18] was 0 and the “Plant response rating, Nutsedge” value [12, 19] was 0. The “Plant response rating, Nutsedge” value [12, 22] was 0, the “Plant response rating, Nutsedge” value [12, 23] was 0 and the “Plant response rating, Nutsedge” value [12, 24] was 0. For the same compound, the “Rice plant response rating” value [13, 25] was 0, the “Rice plant response rating (0 to 10 scale, 0 is no effect, 10 is complete control)” value [13, 26] was 0 and the “Rice plant response rating” value [13, 27] was 0. The “Rice plant response rating” value [13, 28] was 0, the “S. Flatsedge plant response rating” value [14, 25] was 0 and the “S. Flatsedge plant response rating (0 to 10 scale, 0 is no effect, 10 is complete control)” value [14, 26] was 0. For the same compound, the “S. Flatsedge plant response rating” value [14, 27] was 0, the “S. Flatsedge plant response rating” value [14, 28] was 0 and the “Ducksalad plant response rating” value [15, 25] was 0. For the same compound, the “Ducksalad plant response rating (0 to 10 scale, 0 is no effect, 10 is complete control)” value [15, 26] was 0, the “Ducksalad plant response rating” value [15, 27] was 0 and the “Ducksalad plant response rating” value [15, 28] was 0. For the same compound, the “Barnyardgrass plant response rating” value [16, 25] was 0, the “Barnyardgrass plant response rating (0 to 10 scale, 0 is no effect, 10 is complete control)” value [16, 26] was 0 and the “Barnyardgrass plant response rating” value [16, 27] was 0. The “Barnyardgrass plant response rating” value [16, 28] was 0.
